The text below walks through data of article PMC11693670 (Frontiers in Fungal Biology, 2024).

Ends that are not written are not given here.

For one test, the system named is C. neoformans. The test is described as follows: Fungicidal/fungistatic tests. In kind it is cell-based, Cryptococcus neoformans. As to conditions: 5 µL plated on YPD agar, 30°C, visual inspection, six replicates. The arrangement: key: Presence (+); absence (–). As for the experimental part:
Fungicidal/fungistatic tests were conducted with the four especially effective syn-enterocin peptides. C. neoformans was grown at 30°C in YPD overnight to an OD between 0.5 and 1.2 at 600 nm, then the C. neoformans culture was diluted to 10^5 and 10^3 fungal cells per well on a 96-well plate. Each well was treated with peptide at 16 µM before 5 µL per well was transferred onto YPD agar plates. Dilutions to reach desired cell counts were done in YPD. Six replicates of each peptide/dilution combination were plated. Plates were incubated at 30°C for 72 hours. Fungal growth was determined by visual inspection, with presence or absence of fungal growth being recorded (individual colonies were absent or overgrown and thus uncountable).

The next test concerns C. neoformans (KN99α). As to conditions: 96 h.

Method for C. neoformans (KN99α): C. neoformans and C. auris plates were incubated at 37°C and 5% CO2 for 96 hours after introduction of peptide and read at OD 600nm every 24 hours. […] MICs were determined for suspected positive hits against C. neoformans and C. albicans grown under the conditions previously described with approximately 500 fungal cells per well. […] C. neoformans plates were incubated at 37°C and 5% CO2 for 96 hours after introduction of peptide and read at OD 600nm every 24 hours. […] MICs were determined by approximately 50% inhibition of fungal growth, meaning that fungal growth as measured by OD was reduced 50% by peptide treatment relative to vehicle control.
Percent inhibition was calculated as the reduction
in OD at 600nm following peptide treatment relative to vehicle control. The average of six
replicates was used for each peptide concentration treatment and vehicle control.

In the case of `OC(Cn1cncn1)(Cn1cncn1)c1ccc(F)cc1F` [Fluconazole], the “Presence or absence of fungal growth at 72 hrs” value is listed as “–” in the test on C. neoformans (cell count 10^3, treatment 16 μM) and “–” in the test with C. neoformans (cell count 10^5, treatment 16 μM).

In the case of AGWERIAKELKKYIKKGKKVIRAAW [Peptide 32], in the test with C. neoformans (KN99α), the “MIC against C. neoformans” value is 2 µM.
